Test system: revascularization, unstable angina requiring hospitalization, MI, all causes of death, or stroke
Assay: PROVE IT-TIMI 22: SNP by treatment interaction (high-dose atorvastatin vs standard-dose pravastatin), logistic regression (synergy index), primary composite endpoint
Format: in vivo, human
Settings: for OR: PROVEIT

Compound `CC(C)c1c(C(=O)Nc2ccccc2)c(-c2ccccc2)c(-c2ccc(F)cc2)n1CC[C@@H](O)C[C@@H](O)CC(=O)O` [Atorvastatin, atorvastatin] has an OR (marker rs13129010, caseonly, model dom, End-point CHD, atorvastatin vs pravastatin) of 1.39, an OR (marker rs13150189, caseonly, model dom, End-point CVD, atorvastatin vs pravastatin) of 1.36 and an OR (marker rs16934059, cohort, model dom, End-point CHD, atorvastatin vs pravastatin) of 0.65. For the same compound, the OR (marker rs17002013, cohort, model dom, End-point CVD, atorvastatin vs pravastatin) was 1.38, the OR (marker rs17688430, caseonly, model add, End-point CVD, atorvastatin vs pravastatin) was 0.77 and the OR (marker rs17821383, caseonly, model rec, End-point CHD, atorvastatin vs pravastatin) was 0.35. For the same compound, the OR (rs4773, caseonly, dom, CVD) was 0.68, the OR (rs475420, caseonly, dom, CVD) was 1.57 and the OR (rs1045916, caseonly, add, CHD) was 0.79. For the same compound, the OR (rs7067780, caseonly, dom, CVD) was 1.41, the OR (rs9906737, caseonly, dom, CHD) was 0.53 and the OR (rs17644708, caseonly, rec, CVD) was 0.34. The “OR (SNP x treatment interaction)” value (rs742827, allele A, ADD, Imputed, atorvastatin vs pravastatin) was 1.396, the “OR (SNP x treatment interaction)” value (rs879961, allele T, ADD, Imputed, atorvastatin vs pravastatin) was 1.178 and the “OR (SNP x treatment interaction)” value (rs906353, allele A, DOM, Imputed, atorvastatin vs pravastatin) was 1.22. The “OR (SNP x treatment interaction)” value (rs915491, allele C, DOM, Imputed, atorvastatin vs pravastatin) was 1.329, the “OR (SNP x treatment interaction)” value (rs915493, allele T, DOM, Imputed, atorvastatin vs pravastatin) was 1.329 and the “OR (SNP x treatment interaction)” value (rs915494, allele A, ADD, Imputed, atorvastatin vs pravastatin) was 1.399. For the same compound, the “OR (SNP x treatment interaction)” value (rs915494, allele A, DOM, Imputed, atorvastatin vs pravastatin) was 1.486, the “OR (SNP x treatment interaction)” value (rs917295, allele G, DOM, Imputed, atorvastatin vs pravastatin) was 0.5934 and the “OR (SNP x treatment interaction)” value (rs966583, allele A, ADD, Imputed, atorvastatin vs pravastatin) was 0.7596. The “OR (SNP x treatment interaction)” value (rs966583, allele A, DOM, Imputed, atorvastatin vs pravastatin) was 0.6781, the “OR (SNP x treatment interaction)” value (rs7180245, allele A, REC, Imputed, atorvastatin vs pravastatin) was 1.965 and the “OR (SNP x treatment interaction)” value (rs7283476, allele T, ADD, Imputed, atorvastatin vs pravastatin) was 0.413. For the same compound, the “OR (SNP x treatment interaction)” value (rs7283476, allele T, DOM, Imputed, atorvastatin vs pravastatin) was 0.3545, the “OR (SNP x treatment interaction)” value (rs7298255, allele A, ADD, Imputed, atorvastatin vs pravastatin) was 0.7433 and the “OR (SNP x treatment interaction)” value (rs7298255, allele A, DOM, Imputed, atorvastatin vs pravastatin) was 0.74. The “OR (SNP x treatment interaction)” value (rs7392620, allele C, ADD, Imputed, atorvastatin vs pravastatin) was 0.6521, the “OR (SNP x treatment interaction)” value (rs7446891, allele G, DOM, Imputed, atorvastatin vs pravastatin) was 0.5934 and the “OR (SNP x treatment interaction)” value (rs7448641, allele C, ADD, Imputed, atorvastatin vs pravastatin) was 0.9741. For the same compound, the “OR (SNP x treatment interaction)” value (rs7448641, allele C, DOM, Imputed, atorvastatin vs pravastatin) was 1.136, the “OR (SNP x treatment interaction)” value (rs7499402, allele A, ADD, Genotyped, atorvastatin vs pravastatin) was 2.08 and the “OR (SNP x treatment interaction)” value (rs7529851, allele A, ADD, Imputed, atorvastatin vs pravastatin) was 0.7324. The “OR (SNP x treatment interaction)” value (rs7573951, allele G, ADD, Imputed, atorvastatin vs pravastatin) was 1.009, the “OR (SNP x treatment interaction)” value (rs7599198, allele T, DOM, Imputed, atorvastatin vs pravastatin) was 0.9895 and the “OR (SNP x treatment interaction)” value (rs7607712, allele T, ADD, Imputed, atorvastatin vs pravastatin) was 1.357. For the same compound, the “OR (SNP x treatment interaction)” value (rs7607712, allele T, DOM, Imputed, atorvastatin vs pravastatin) was 1.496, the “OR (SNP x treatment interaction)” value (rs7621663, allele G, REC, Imputed, atorvastatin vs pravastatin) was 0.8874 and the “OR (SNP x treatment interaction)” value (rs7626584, allele G, ADD, Imputed, atorvastatin vs pravastatin) was 0.6617. For the same compound, the “OR (SNP x treatment interaction)” value (rs7684899, allele C, ADD, Imputed, atorvastatin vs pravastatin) was 0.617, the “OR (SNP x treatment interaction)” value (rs7684899, allele C, DOM, Imputed, atorvastatin vs pravastatin) was 0.5176 and the “OR (SNP x treatment interaction)” value (rs7701604, allele G, ADD, Imputed, atorvastatin vs pravastatin) was 0.9741. For the same compound, the “OR (SNP x treatment interaction)” value (rs7701604, allele G, DOM, Imputed, atorvastatin vs pravastatin) was 1.136, the “OR (SNP x treatment interaction)” value (rs7703676, allele C, ADD, Imputed, atorvastatin vs pravastatin) was 0.9741 and the “OR (SNP x treatment interaction)” value (rs7703676, allele C, DOM, Imputed, atorvastatin vs pravastatin) was 1.136. The “OR (SNP x treatment interaction)” value (rs7708491, allele C, REC, Imputed, atorvastatin vs pravastatin) was 1.179, the “OR (SNP x treatment interaction)” value (rs7711358, allele A, DOM, Imputed, atorvastatin vs pravastatin) was 0.593 and the “OR (SNP x treatment interaction)” value (rs7724761, allele T, REC, Imputed, atorvastatin vs pravastatin) was 1.207. The “OR (SNP x treatment interaction)” value (rs7762993, allele A, ADD, Imputed, atorvastatin vs pravastatin) was 1.066, the “OR (SNP x treatment interaction)” value (rs7762993, allele A, DOM, Imputed, atorvastatin vs pravastatin) was 1.079 and the “OR (SNP x treatment interaction)” value (rs7767265, allele G, ADD, Imputed, atorvastatin vs pravastatin) was 1.18. The “OR (SNP x treatment interaction)” value (rs7768128, allele G, REC, Imputed, atorvastatin vs pravastatin) was 0.3066, the “OR (SNP x treatment interaction)” value (rs7773151, allele C, DOM, Genotyped, atorvastatin vs pravastatin) was 1.038 and the “OR (SNP x treatment interaction)” value (rs7773210, allele A, DOM, Genotyped, atorvastatin vs pravastatin) was 1.038. The “OR (SNP x treatment interaction)” value (rs7843510, allele G, DOM, Genotyped, atorvastatin vs pravastatin) was 0.9929, the “OR (SNP x treatment interaction)” value (rs7939893, allele C, ADD, Imputed, atorvastatin vs pravastatin) was 0.6916 and the “OR (SNP x treatment interaction)” value (rs7939893, allele C, DOM, Imputed, atorvastatin vs pravastatin) was 0.506. The “OR (SNP x treatment interaction)” value (rs7944513, allele T, REC, Imputed, atorvastatin vs pravastatin) was 1.787, the “OR (SNP x treatment interaction)” value (rs7949720, allele G, ADD, Imputed, atorvastatin vs pravastatin) was 1.485 and the “OR (SNP x treatment interaction)” value (rs7949720, allele G, DOM, Imputed, atorvastatin vs pravastatin) was 1.52. For the same compound, the “OR (SNP x treatment interaction)” value (rs7955901, allele C, ADD, Imputed, atorvastatin vs pravastatin) was 0.7285, the “OR (SNP x treatment interaction)” value (rs7955901, allele C, DOM, Imputed, atorvastatin vs pravastatin) was 0.7139 and the “OR (SNP x treatment interaction)” value (rs7956274, allele T, ADD, Imputed, atorvastatin vs pravastatin) was 0.7156. The “OR (SNP x treatment interaction)” value (rs7956274, allele T, DOM, Imputed, atorvastatin vs pravastatin) was 0.7031, the “OR (SNP x treatment interaction)” value (rs7957932, allele G, ADD, Imputed, atorvastatin vs pravastatin) was 0.7234 and the “OR (SNP x treatment interaction)” value (rs7957932, allele G, DOM, Imputed, atorvastatin vs pravastatin) was 0.6888. The “OR (SNP x treatment interaction)” value (rs7999518, allele A, REC, Imputed, atorvastatin vs pravastatin) was 0.4462, the “OR (SNP x treatment interaction)” value (rs8026245, allele G, REC, Imputed, atorvastatin vs pravastatin) was 1.888 and the “OR (SNP x treatment interaction)” value (rs8060725, allele A, ADD, Genotyped, atorvastatin vs pravastatin) was 0.6772. The “OR (SNP x treatment interaction)” value (rs8103016, allele A, ADD, Genotyped, atorvastatin vs pravastatin) was 1.223, the “OR (SNP x treatment interaction)” value (rs8104182, allele G, ADD, Imputed, atorvastatin vs pravastatin) was 1.298 and the “OR (SNP x treatment interaction)” value (rs8104182, allele G, DOM, Imputed, atorvastatin vs pravastatin) was 1.4. For the same compound, the “OR (SNP x treatment interaction)” value (rs8129461, allele G, ADD, Imputed, atorvastatin vs pravastatin) was 0.3726, the “OR (SNP x treatment interaction)” value (rs8129461, allele G, DOM, Imputed, atorvastatin vs pravastatin) was 0.3187 and the “OR (SNP x treatment interaction)” value (rs8130021, allele G, ADD, Imputed, atorvastatin vs pravastatin) was 0.4152. For the same compound, the “OR (SNP x treatment interaction)” value (rs8130021, allele G, DOM, Imputed, atorvastatin vs pravastatin) was 0.3565, the “OR (SNP x treatment interaction)” value (rs9293464, allele T, REC, Imputed, atorvastatin vs pravastatin) was 1.207 and the “OR (SNP x treatment interaction)” value (rs9295154, allele G, DOM, Genotyped, atorvastatin vs pravastatin) was 1.463. For the same compound, the “OR (SNP x treatment interaction)” value (rs9310221, allele A, DOM, Imputed, atorvastatin vs pravastatin) was 0.8966, the “OR (SNP x treatment interaction)” value (rs9327555, allele T, DOM, Imputed, atorvastatin vs pravastatin) was 0.5934 and the “OR (SNP x treatment interaction)” value (rs9403367, allele C, DOM, Imputed, atorvastatin vs pravastatin) was 1.038. The “OR (SNP x treatment interaction)” value (rs9419608, allele G, REC, Imputed, atorvastatin vs pravastatin) was 0.5885, the “OR (SNP x treatment interaction)” value (rs9426437, allele T, DOM, Imputed, atorvastatin vs pravastatin) was 1.067 and the “OR (SNP x treatment interaction)” value (rs9454967, allele G, DOM, Imputed, atorvastatin vs pravastatin) was 0.9744. The “OR (SNP x treatment interaction)” value (rs9635511, allele T, DOM, Imputed, atorvastatin vs pravastatin) was 0.8692, the “OR (SNP x treatment interaction)” value (rs9812206, allele G, ADD, Imputed, atorvastatin vs pravastatin) was 1.042 and the “OR (SNP x treatment interaction)” value (rs9812206, allele G, DOM, Imputed, atorvastatin vs pravastatin) was 1.042. For the same compound, the “OR (SNP x treatment interaction)” value (rs9813552, allele G, ADD, Imputed, atorvastatin vs pravastatin) was 1.042, the “OR (SNP x treatment interaction)” value (rs9813552, allele G, DOM, Imputed, atorvastatin vs pravastatin) was 1.077 and the “OR (SNP x treatment interaction)” value (rs9815037, allele T, DOM, Imputed, atorvastatin vs pravastatin) was 1.083. For the same compound, the “OR (SNP x treatment interaction)” value (rs9825349, allele A, DOM, Imputed, atorvastatin vs pravastatin) was 1.083, the “OR (SNP x treatment interaction)” value (rs9840756, allele A, ADD, Imputed, atorvastatin vs pravastatin) was 0.9995 and the “OR (SNP x treatment interaction)” value (rs9840756, allele A, DOM, Imputed, atorvastatin vs pravastatin) was 1.031.
